Values after ≈ are worked out from the molar mass of the structure shown. Like-named read-outs stand apart in the source and are kept apart here.
Columns and labels:
CYP3A4 = target: T1, CYP3A4 (Homo sapiens, UniProt P08684); assay: CYP3A4 (MDZ) MBI Test; assay type: in vitro ADME; details: pooled human liver microsomes, 10 μmol/L MDZ, pre-reaction 0 or 30 minutes
T1 construct: enzyme, pooled human hepatic microsome 0.2 mg protein/mL; from tissue
Procedure: CYP3A4 (MDZ) MBI test is a test of investigating mechanism based inhibition (MBI) ability on CYP3A4 inhibition of a compound by enhancement of a metabolism reaction. CYP3A4 inhibition is evaluated using 1-hydroxylation reaction of midazolam (MDZ) by pooled human liver microsomes as an index.
The reaction conditions are as follows: substrate, 10 μmol/L MDZ; pre-reaction time, 0 or 30 minutes; substrate reaction time, 2 minutes; reaction temperature, 37° C.; protein content of pooled human liver microsomes, at pre-reaction time 0.5 mg/mL, at reaction time 0.05 mg/mL (at 10-fold dilution); concentrations of the compound of the present invention, 1, 5, 10, 20 μmol/L (four points).
Pooled human liver microsomes in K-Pi buffer (pH 7.4) and a solution of the compound of the present invention as a pre-reaction solution were added to a 96-well plate at the composition of the pre-reaction. […] After centrifuged at 3000 rpm for 15 minutes, 1-hydroxymidazolam in the supernatant was quantified by LC/MS/MS.
The sample adding DMSO to a reaction system instead of a solution of the compound of the present invention is adopted as a control (100%) because DMSO is used as a solvent to dissolve the compound of the present invention. […] Shifted IC value is calculated as “IC of preincubation at 0 min/IC of preincubation at 30 min”. […]

Powder Solubility Test = assay type: physicochemical; details: thermodynamic from solid, shaken 1 hour at 37° C.
Procedure: Appropriate amounts of the test substances are put into appropriate containers. To the respective containers are added 200 μL of JP-1 fluid (sodium chloride 2.0 g, hydrochloric acid 7.0 mL and water to reach 1000 mL), 200 μL of JP-2 fluid (phosphate buffer (pH 6.8) 500 mL and water 500 mL), and 200 μL of 20 mmol/L TCA (sodium taurocholate)/JP-2 fluid (TCA 1.08 g and JP-2 fluid to reach […]). IN the case that all amount of the test compound is dissolved after the addition of the test fluid, the test compound is added as appropriate. The containers are sealed, and shaken for 1 hour at 37° C. The mixtures are filtered, and 100 μL of methanol is added to each of he filtrate […] so that the filtrates are two-fold diluted. The dilution ratio may be changed if necessary. The dilutions are observed for bubbles and precipitates, and then the containers are sealed and shaken. Quantification is performed by HPLC with an absolute calibration method.

CYP1A2 = target: T2, CYP1A2 (Homo sapiens, UniProt P05177); assay: CYP Inhibition Assay (7-ethoxyresorufin O-deethylation); assay type: in vitro ADME; details: pooled human hepatic microsome, 0.5 μmol/L ethoxyresorufin, 15 minutes, 37° C.
T2 construct: enzyme, pooled human hepatic microsome 0.2 mg protein/mL; from tissue
T2 sequence (P05177 1-516): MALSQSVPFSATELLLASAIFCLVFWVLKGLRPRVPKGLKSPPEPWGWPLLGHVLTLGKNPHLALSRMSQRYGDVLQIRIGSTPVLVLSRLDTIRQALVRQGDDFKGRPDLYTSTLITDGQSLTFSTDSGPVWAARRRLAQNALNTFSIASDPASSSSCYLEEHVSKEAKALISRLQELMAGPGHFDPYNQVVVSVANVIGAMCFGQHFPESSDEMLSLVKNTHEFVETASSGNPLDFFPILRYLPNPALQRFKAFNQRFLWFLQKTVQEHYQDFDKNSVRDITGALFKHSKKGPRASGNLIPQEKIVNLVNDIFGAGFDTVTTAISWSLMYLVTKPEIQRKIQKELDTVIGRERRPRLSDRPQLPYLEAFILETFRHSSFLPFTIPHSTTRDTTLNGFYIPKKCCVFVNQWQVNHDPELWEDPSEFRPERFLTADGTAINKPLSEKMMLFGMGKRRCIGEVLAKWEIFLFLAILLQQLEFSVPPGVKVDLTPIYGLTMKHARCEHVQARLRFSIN
Procedure: Using commercially available pooled human hepatic microsome, and employing, as markers, 7-ethoxyresorufin O-deethylation (CYP1A2), tolbutamide methyl-hydroxylation (CYP2C9), mephenytoin 4'-hydroxylation (CYP2C19), dextromethorphan O-demethylation (CYP2D6), and terfenadine hydroxylation (CYP3A4) as typical substrate metabolism reactions of human main five CYP enzyme forms (CYP1A2, 2C9, 2C19, 2D6, 3A4) an inhibitory degree of each metabolite production amount by a test compound was assessed. […] After the centrifugation at 3000 rpm for 15 minutes, resorufin (CYP1A2 metabolite) in the supernatant was quantified by a fluorescent multilabel counter and tolbutamide hydroxide (CYP2C9 metabolite), mephenytoin 4' hydroxide (CYP2C19 metabolite), dextrorphan (CYP2D6 metabolite), and terfenadine alcohol (CYP3A4 metabolite) were quantified by LC/MS/MS. A reaction system containing only DMSO which is a solvent for dissolving a drug was adopted as a control (100%), and the remaining activity (%) was calculated, then IC50 was calculated by reverse presumption with a logistic model using a concentration and an inhibition rate.

T1 sequence (P08684 whole entry): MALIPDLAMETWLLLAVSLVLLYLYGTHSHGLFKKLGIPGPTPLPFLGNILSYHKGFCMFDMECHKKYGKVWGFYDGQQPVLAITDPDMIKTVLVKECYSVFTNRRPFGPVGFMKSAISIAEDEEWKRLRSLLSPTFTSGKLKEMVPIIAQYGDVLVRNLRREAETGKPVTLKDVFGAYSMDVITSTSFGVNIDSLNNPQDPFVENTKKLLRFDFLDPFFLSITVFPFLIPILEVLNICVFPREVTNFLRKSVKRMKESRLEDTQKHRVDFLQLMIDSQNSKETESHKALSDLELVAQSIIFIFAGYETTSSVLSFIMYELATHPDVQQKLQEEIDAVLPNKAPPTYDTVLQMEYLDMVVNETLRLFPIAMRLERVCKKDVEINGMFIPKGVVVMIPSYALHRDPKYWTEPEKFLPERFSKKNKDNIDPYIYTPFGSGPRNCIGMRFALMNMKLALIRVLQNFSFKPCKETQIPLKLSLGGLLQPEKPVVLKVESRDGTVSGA

## Cc1ccc(-c2c([C@H](OC(C)(C)C)C(=O)O)c(C)c3c4c2cc(-c2ccnc(-c5ccc6c(cnn6C)c5)c2)n4CCN3CCN(C)C)cc1 [Compound I-034]
CYP3A4
  CYP3A4 (MDZ) MBI (shifted IC): (−) (When a shifted IC is 1.0 or less, this is defined as negative)
Powder Solubility Test; aqueous buffer, JP-2 fluid (phosphate buffer pH 6.8), read-out: powder solubility, JP-2 fluid
  solubility at 1 h: 0.603 µg/mL (≈ 0.899 µM)
Powder Solubility Test; pH 1.2, simulated gastric fluid, JP-1 fluid, read-out: powder solubility, JP-1 fluid
  solubility at 1 h: > 1000 µg/mL
Powder Solubility Test; pH 6.8, fassgf or other biorelevant, 20 mmol/L TCA (sodium taurocholate)/JP-2 fluid, read-out: powder solubility, 20 mmol/L TCA/JP-2 fluid
  solubility at 1 h: > 1000 µg/mL
CYP1A2
  IC50: > 20 µM

— US9975906B2, “Tricyclic heterocycle derivatives having HIV replication inhibitory effect” (Shionogi & Co., Ltd., priority 2014, dated 2018)
